Data: patent US4044043A, “Derivatives of 9-oxo-13-trans-prostenoic acid esters” (American Cyanamid Company, priority 1975, dated 1977)
Converted amounts (≈) assume the structure as drawn. Where two headings read alike, the source gives them in different places.

What was measured:
[1] = system: Mycobacterium smegmatis ATCC 606; experiment: agar-dilution streak-plate antimicrobial assay; assay type: cell-based; conditions: Mycolicibacterium smegmatis, ATCC606, read-out: Minimal inhibitory conc. (6)
Protocol: The novel compounds of the present invention are also useful as antimicrobial agents. […] In this assay, the compounds to be tested are made up to contain 2.5 mg. of test compound per milliliter of solution. Observing sterile techniques, two-fold serial dilution are made of each test solution. One milliliter of each of the original solutions and of each of the serial dilutions is then added to 9 ml. of warm sterile nutrient agar capable of supporting growth of the bacterial test cultures. A second set of agar dilutions is prepared identical to the first except that the nutrient agar is designed to support the growth of the fungal test cultures. […] The test bacteria and yeast-like fungi are prepared for use by growing in broth overnight. The spores of the filamentous fungi are harvested from mature agar slant cultures and are suspended in sterile physiological saline solution. A loopful of each of the resulting live suspensions is then, still employing sterile techniques, streaked upon the surfaces of each of the agar plates and the resulting streaked plates are then incubated. After an appropriate period of time, each of the streaks on each of the plates is inspected visually and the extent, if any, of bacterial or fungal growth is noted. The minimal inhibitory concentration (expressed in micrograms per milliliter) is defined as the concentration of test compound causing complete inhibition of growth of any particular organism. In a representative operation, and merely by way of illustration, the minimal inhibitory concentration of typical compounds of the present invention against a variety of test organisms as determined in the above-described assay are set forth in Tables II and III below: […]

[2] = system: diastolic blood pressure; experiment: Prostaglandin-like hypotensive activity in anesthetized rats (minimal dose for about 10 mm. decrease in diastolic blood pressure); assay type: in vivo, Male Wistar strain rats; conditions: Rattus norvegicus; intravenous; decrease of about 10 mm. in diastolic blood pressure
Protocol: This procedure is a modification of the technique described by Pike et al., Prostaglandins, Nobel Symposium 2, Stockholm, June, 1966; p, 165.
Male Wistar strain rats (Royal Hart Farms) averaging approximately 250 grams in weight were fastened to rat boards in a supine position by means of canvas vests and limb ties. The femoral area was infiltrated subcutaneously with lidocaine and the iliac artery and vein exposed and cannulated. Arterial blood pressure (systolic/diastolic) was recorded using a Statham P23 Db pressure transducer-Offner dynograph system. To obtain a stable blood pressure, the animals were anesthetized before use with pentobarbital, 30 mg./kg. of body weight intravenously, and also were given hexamethonium bitartrate, 2 mg./kg. of body weight intravenously. The test compounds were prepared by ultrasonic dispersion in a saline-Tween 80 ® vehicle. A constant intravenous dose volume of 0.5 ml. was administered and test doses ranged from 0.1 to 10.0 mg./kg. of body weight. Increasing or decreasing doses were selected depending on the dose response obtained. In Table I below are set forth the minimal doses required to produce a decrease of about 10 mm. in diastolic blood pressure for typical compounds of the present invention.

[3] = system: bronchospasms elicited by histamine; experiment: Bronchodilator Activity (Konzett Assay) against histamine; assay type: in vivo, guinea pigs; conditions: Cavia porcellus; three logarithmic cumulative intravenous doses
Protocol: (§1) Bronchodilator activity was determined in guinea pigs against bronchospasms elicited by intravenous injections of 5-hydroxytryptamine, histamine or acetylcholine by the Konzett procedure. [See J. Lulling, P. Lievens, F. El Sayed and J. Prignot, Arzeneimittel-Forschung, 18, 995 (1968)]. In Table IIIC which follows bronchodilator activity for representative compounds of this invention against one or more of the three spasmogenic agents is expressed as an ED50 determined from the results obtained with three logarithmic cumulative intravenous doses.

[4] = system: bronchospasms elicited by 5-hydroxytryptamine; experiment: Bronchodilator Activity (Konzett Assay) against 5-hydroxytryptamine; assay type: in vivo, guinea pigs; conditions: Cavia porcellus; three logarithmic cumulative intravenous doses
Protocol: as §1

[5] = system: bronchospasms elicited by acetylcholine; experiment: Bronchodilator Activity (Konzett Assay) against acetylcholine; assay type: in vivo, guinea pigs; conditions: Cavia porcellus; three logarithmic cumulative intravenous doses
Protocol: as §1

[6] = system: dl-PGE1-induced contraction of gerbil colon; experiment: Inhibition of dl-PGE1-Induced Contraction of Gerbil Colon (prostaglandin antagonist action); assay type: cell-based, gerbils (Meriones unguiculatus); conditions: Meriones unguiculatus, 1 min
Protocol: The compounds of this invention are also useful as antagonists of prostaglandin action and accordingly they are potentially useful as anti-inflammatory agents, and as agents for the treatment of periodontal diseases and diarrhea. Testing for prostaglandin antagonist action is carried out in the following manner. Sections of ascending colon, approximately 20 mm. long, from mature male gerbils (Meriones unguiculatus) weighing 70-80 g. were mounted in De Jalon's solution (154 mM NaCl; 5.95 mM NAHCO3; […], 5.64 mM KC and .27 mM CaCl2 in 20 ml. tissue baths) (L and K Glass Co., Lynnhurst, N.J.). The medium was continually gassed with a mixture of 95% 02 -5% CO2 and maintained at 37° C. The tissues were suspended via silk suture threads between a glass hook at the base and a model FT .03C force displacement transducer (Grass Instruments, Quincy, Massachusetts). Contractions were recorded on a Poly-Viso ® polygraph (Sanborn Co., Cambridge, Massachusetts). After mounting, tissues were allowed to stabilize 15-20 minutes during which time adjustments were made to establish and maintain a 0.5 g. resting tension on the muscle. Thereafter, test cycles of 3-5 minutes were begun and consisted of a 1 minute exposure to the potential antagonist, if called for, followed by a 1 minute exposure to the prostaglandin agonist, a 15-30 sec. washout and a recovery period of 2-2.5 minutes. […] During the washout period, the tissue was rinsed with a measured amount equalling 8 volumes of medium. Muscle relaxation was virtually complete by the end of the washout period. During preliminary tests it was noted that a final concentration of 200 ng./ml. of a racemic mixture of synthetic prostaglandin-E1 (dl-PGE1) produced maximal muscle contraction. Following stabilization, muscles were exposed 2 to 3 times to this concentration of dl-PGE1 until a consistent response was recorded. Once maximal responses were established, test cycles with potential antagonists were commenced and were followed alternately with prostaglandin-only test cycle. […] The contraction of the muscle induced by 200 ng./ml. dl-PGE1 following exposure to a given concentration of the potential antagonist was always compared to the response of the tissue to that level of dl PGE1 in the immediately preceding cycle. Using a series of potential antagonist concentrations, an approximate ID50 (concentration at which 50% inhibition was observed) was established. The compounds were also tested against a sub-maximal prostaglandin challenge (20 ng./ml. dl-PGE1) in which case activity is reported in terms of a 50% inhibition of maximum response.

[7] = system: gastric acid secretion; experiment: Inhibition of Gastric Acid Secretion (Pylorous-Ligated Rat), Shay rat procedure; assay type: in vivo, rats (male, CFE strain); conditions: 100 mg./kg. intraduodenal, read-out: % Inhibition of Control Gastric Acid Secretion
Description: The novel compounds of the present invention are also effective inhibitors of gastric acid secretion and of ulcer development in experimental animals, and thus are potentially valuable as agents for the control of gastric acid secretion and of gastric erosion and as anti-ulcer agents. Gastric acid secretion inhibitory action is usually measured by the Shay rat procedure ^(1,2) with some modifications as follows. 6 1. Shay et al., Gastroenterology, 5, 43 (1945). 6 2. Shay et al., Gastroenterology, 26, 906 (1954).
The rats (male, CFE strain) were starved for 48 hours (water was given ad libitum) to permit evacuation of stomach contents. On the morning of the experiment, under ether anesthesia, the abdominal region was shaved and a midline incision (1-1 1/2 inch) was made with a scalpel. With the help of a closed curved hemostat the duodenum was picked up. Upon getting the duodenum into view fingers were used to pull the stomach through the opening, the stomach was then gently manipulated with fingers to rid stomach of air and residual matter which were pushed through the pylorus. Two 5-inch sutures were drawn under the pyloric-duodenal puncture. A ligature, at the juncture, was formed with one of the threads. The second ligature was also formed but not tightened.
The test compound or the vehicle, usually 1 ml./100 g. body weight, were injected into the duodenum as close as possible to the first ligature. After injection the second ligature was tightened below the injection site to minimize leakage. The stomach was placed back through the opening into the abdominal cavity, the area of incision was washed with saline and the incision was closed with autoclips. (Ocasionally instead of an intraduodenal injection, animals were dosed by the oral or subcutaneous route. In the latter case, dosing was done thirty to sixty minutes before the operation).
The abdominal cavity was exposed by cutting with scissors and the esophagus close to the stomach was clamped off with a hemostat, the stomach was removed by cutting above the hemostat (the esophagus was cut) and between the two sutures. Extraneous tissue was removed, the stomach washed with saline and blotted on gauze. A slit was carefully made in the stomach which was held over a funnel and the contents were collected in a centrifuge tube. The stomach was further cut along the outside edge and turned inside out. Two ml. of water were used to wash the stomach contents into the respective centrifuge tube. The combined stomach contents and wash were then centrifuged out for 10 minutes in the International Size 2 Centrifuge (setting at 30). The supernatant was collected, volume measured and recorded, 2 drops of phenolphthalein indicator (1% in 95% ethanol) were added and the solution was titrated with 0.02N NaOH (or with 0.04N NaOH when large volumes of stomach contents were encountered) to pH 8.4 (because of usual coloring of the stomach contents, phenolphthalein was only used to permit visual indication that the end point was near) and the amount of acid present was calculated.
Compounds inducing inhibition of gastric acid secretion of 20% or more were considered active. In a representative operation, and merely by way of illustration, the results obtained with this assay with typical compounds of the present invention are given in Table IIIA.

[8] = 200 ng./ml. dl-PGE1, read-out: ID50 vs. 200 ng. of PGE1/ml.
[9] = sub-maximal challenge, 20 ng./ml. dl-PGE1, 50% inhibition of maximum response, read-out: ID50 vs. 20 ng. of PGE1/ml.

Row | SMILES | MIC [1] [µg/mL] | minimal effective dose [2] [mg/kg] | ED50 [3] [mg/kg] | ED50 [4] [mg/kg] | ED50 [5] [mg/kg] | IC50 [6, 8] [µg/mL] | inhibition in vivo at 100 mg/kg [7] [%] | IC50 [6, 9] [µg/mL]
1 | CCOC(=O)CCCCCC[C@H]1C(=O)CC[C@@H]1/C=C/CCCSCC (relative stereo) [ethyl 9-oxo-18-thia-13-trans-prostenoate] | 250 (≈ 678 µM) | 2 | – | – | – | – | – | –
2 | CCCCC/C=C/[C@H]1CCC(=O)[C@@H]1CCCCCCC(=O)OCC (relative stereo) [ethyl 9-oxo-20-nor-13-trans-prostenoate] | 62 (≈ 184 µM) | 0.6 | – | – | – | – | – | –
3 | C=C1CC[C@@H](/C=C/CCCCCC)[C@@H]1CCCCCCC(=O)O (relative stereo) [9-methylene-13-trans-prostenoic acid, 9-Methylene-13-trans-prostenoic acid] | – | – | 1.45 | 14.1 | > 10 | – | – | –
4 | CCCCCC/C=C/[C@H]1CC(C)C(=O)[C@@H]1CCCCCCC(=O)O (stereo partly drawn) [9-oxo-10-methyl-13-trans-prostenoic acid] | – | – | 0.303 | 1.84 | 73.2 | – | – | –
5 | CC(C)C/C=C/[C@H]1CCC(O)[C@@H]1CCCCCCC(=O)O (stereo partly drawn) [9α/β-hydroxy-16-methyl-18,19,20-trinor-13-trans-prostenoic acid] | – | – | 3.47 | > 10 | > 10 | – | – | –
6 | CCCCCC/C=C/[C@@H]1CCC(=O)[C@H]1CCCCCCC(=O)Oc1cccnc1 (relative stereo) [3-pyridyl 9-oxo-13-trans-prostenoate, 3'-pyridyl 9-oxo-13-trans-prostenoate] | 50 (≈ 125 µM) | 0.4 to 4 | – | – | – | 12 (≈ 30 µM) | – | –
7 | CCS(=O)(=O)CCC/C=C/[C@H]1CCC(=O)[C@@H]1CCCCCCC(=O)O (relative stereo) [9-oxo-18-dioxythia-13-trans-prostenoic acid] | – | – | 9.87 | > 10 | > 10 | – | – | –
8 | CCOC(=O)CCCCCC[C@H]1C(=O)CC[C@@H]1/C=C/CCCC(C(=O)OCC)C(=O)OCC (relative stereo) [ethyl 20,20-dicarbethoxy-9-oxo-18,19-dinor-13-trans-prostenoate] | 250 (≈ 536 µM) | 8 | – | – | – | – | 38 | –
9 | CCCCCC/C=C/[C@@H]1CCC(=O)[C@H]1C/C=C\CCCC(=O)O (relative stereo) [9-oxo-5-cis,13-trans-prostadienoic acid, 9-oxo-5-cis-13-trans-prostadienoic acid] | – | – | 1.42 | 1.5 | 4.36 | 9 (≈ 28.1 µM) | – | 0.9 (≈ 2.81 µM)
10 | CCOC(=O)CCCCCC[C@H]1C(=O)CC[C@@H]1/C=C/CCC(C)C (relative stereo) [ethyl 17-methyl-9-oxo-19,10-dinor-13-trans-rpostenoate] | 62 (≈ 184 µM) | 10 | – | – | – | – | 21 | –
11 | CCCCCC/C=C/[C@@H]1CCC(=O)[C@H]1CCCCSCC(=O)O (relative stereo) [9-oxo-3-thia-13-trans-prostenoic acid] | – | – | 1.24 | 1.56 | 2.43 | 20 (≈ 58.7 µM) | – | –
12 | CCCCCC/C=C/[C@H]1CCC(=O)[C@@H]1CCCCCC(CC)C(=O)O (stereo partly drawn) [9-oxo-2-ethyl-13-trans-prostenoic acid, 2-ethyl-9-oxo-13-trans-prostenoic acid] | – | – | 7.75 | 2.91 | > 10 | 15 (≈ 42.8 µM) | – | 4 to 5 (≈ 11.4 to 14.3 µM)
13 | CCCCCC/C=C/[C@@H]1CCC(=NNc2ccc(C(=O)O)cc2)[C@H]1CCCCCCC(=O)O (relative stereo) [9-Oxo-13-trans-prostenoic acid p-carboxyphenylhydrazone] | – | – | 0.931 | 3.2 | 5.55 | – | – | –
14 | CCCCCCC=CC1CCC(O)(c2ccccc2)C1CCCCCCC(=O)O (stereo not drawn) [9-hydroxy-9-phenyl-13-trans-prostenoic acid] | – | – | 5.27 | 2.44 | > 10 | – | – | –
15 | CCCCCC/C=C/[C@@H]1CC[C@@H](O)[C@H]1CCCCCCC(=O)O (relative stereo) [9α-hydroxy-13-trans-prostenoic acid] | – | – | 0.268 | 0.559 | 2.53 | – | – | –
